Literature values as cited in patent US20080096926A1, “Treatment Of Cognitive Impairment Using A Selective Dopamine D1 Receptor Agonist” (DrugAbuse Sciences SAS, priority 2002, published 2008).
Where a name gives a salt, the structure may show the parent alone.

Experiments:
[1] = tested on: young control monkeys and aged monkeys
[2] = tested on: MPTP treated monkeys; conditions: for anti-parkinsonian activity: MPTP treated monkeys
[3] = tested on: non-human primate model of cognitive impairment
[4] = tested on: monkeys; conditions: 0.1, 0.3 and 1 mg/kg/day IM
[5] = tested on: MPTP-lesioned macaques
[6] = tested on: schizophrenia
[7] = tested on: prefrontal cortex of rhesus monkeys; conditions: local injections into the prefrontal cortex of rhesus monkeys
[8] = tested on: rats
[9] = tested on: healthy volunteers; conditions: 0.1 mg, 32 healthy volunteers

For Oc1cc2c(cc1O)[C@H]1c3ccccc3CN[C@@H]1CC2 (racemic) [dihydrexidine], the “memory performance in monkeys following administration of D1 agonists” value [1] is listed as “Improved memory performance”, the memory performance ([1]; young control monkeys and aged monkeys) is listed as “improves memory performance” and the anti-parkinsonian activity [2] is listed as “attenuates these parkinsonian signs while increasing eye blink rate”.

For CCCc1cc2c(s1)CN[C@@H]1CCc3cc(OC(C)=O)c(OC(C)=O)cc3[C@@H]21 [DAS-431, (−)-trans 9,10-diacetyloxy-2-propyl-4,5,5a,6,7,11b-hexahydro-3-thia-5-azacyclopent-1-ena[c] phenanthrene hydrochloride], the “reversal of haloperidol-induced working memory impairment” value ([3]; 0.01 μg/kg to 0.1 μg/kg IM, five blocks of five consecutive days) is given as “reverse the haloperidol effects”, the “persistence of treatment effect after the final treatment” value ([3]; in some monkeys) is given as “more than a year” and the tolerance [4] is given as “tolerance may have developed after 3 days of treatment”. For the same molecule, the “effect following repeated administration” value ([5]; other studies (Michaelides et al. 1995)) was “potent effect is maintained”, the efficacy over time ([5]; three-time daily 0.32 mg/kg s.c. for thirty days) was “no difference over time” and the “antiparkinsonian activity (reported for D1 agonists)” value ([2]; model not stated) was “antiparkinsonian activity”. The “dose relationship of adverse events” value (1 mg to 40 mg IV per day) was “no clear dose relationship with the exception of nausea and vomiting in the cocaine abuser population and of dizziness in all subjects”, the “tolerance to side effects” value (Parkinson's disease population) was “rapid tolerance to nausea and vomiting” and the EKG (in vivo) was “Transitory EKG changes”. The “severity of adverse events” value (in vivo) was “mild or moderate” and the adverse events (previous treatment protocols) was “high incidence of dopamine related symptoms such as nausea, vomiting, hypotension, postural hypotension, dizziness, injection and application site reactions”.

For Cc1nc2n(c(=O)c1CCN1CCC(c3noc4cc(F)ccc34)CC1)CCCC2 [Risperidone, risperidone], the executive functioning ([6]; schizophrenia) is given as “positive effects”, the “verbal learning and memory” value ([6]; schizophrenia) is given as “inconsistent results” and the working memory ([6]; schizophrenia) is given as “positive effects”.

In the case of CN1CCc2cc(Cl)c(O)cc2[C@H]2c3ccccc3CC[C@@H]21 [SCH39166], the “performance on working memory tasks” value [7] is listed as “induce errors and increase latency of performance”.

For Oc1cc2c(cc1O)C(c1ccccc1)CNCC2 (stereo not drawn) [SKF 38393], the “memory performance in monkeys following administration of D1 agonists” value [1] is listed as “Improved memory performance”, the anti-parkinsonian activity [2] is listed as “without anti-parkinsonian activity” and the food intake [8] is listed as “decrease food intake”.

In the case of C=CCN1CCc2c(cc(O)c(O)c2Cl)C(c2ccccc2)C1 (stereo not drawn) [SKF 82958], the anti-parkinsonian activity [2] is listed as “increase locomotor activity and improve parkinsonian score”.

For CN1CCN(C2=Nc3cc(Cl)ccc3Nc3ccccc32)CC1 [clozapine], the severe side effects ([6]; in vivo) is given as “agranulocytosis”.

For CCCN1C[C@H](CSC)C[C@@H]2c3cccc4[nH]cc(c34)C[C@H]21 [pergolide], the “effect on spatial memory” value [9] is given as “positive effect”.
